1 molecule from ChEMBL document CHEMBL5154928, “Structure-Aided Design, Synthesis, and Biological Evaluation of Potent and Selective Non-Nucleoside Inhibitors Targeting Protein Arginine Methyltransferase 5” (J Med Chem, 2022) can be followed below.

For orientation: IC50 means the point on the concentration scale where inhibition reaches its midpoint. Broadly, the half-life is the time in which the quantity being followed falls by half. By clearance is commonly meant the rate of elimination divided by the concentration. Low readings indicate inefficient removal, high ones efficient removal.

The target of series [1] is Histone-lysine N-methyltransferase 2A (Homo sapiens, UniProt Q03164). Kind of series: Inhibition of MLL1 (unknown origin) using peptide substrate preincubated for 10 mins followed by substrate addition for 4 hrs by HTRF assay. (TR-FRET usually uses a lanthanide donor and a delayed reading to cut background.)
Series [2] relates to A-375. Kind of series: Induction of apoptosis in human A-375 cells assessed as total apoptotic cells at 1 uM incubated for 48 hrs by Annexin-V FITC/PI staining based flow cytometry analysis relative to control. Format: functional.
The subject of series [3] is A-375. Kind of series: Antitumor activity against human A-375 cells xenografted in BALB/c mouse assessed as tumor growth inhibition at 75 mg/kg, po qd for 19 days and measured every 3 days. Format: functional. The settings on record: A-375, 456 h, time 19 day, read-out: TGI.
Series [4] is described as follows: AUC (0 to infinity) in Sprague-Dawley rat at 10 mg/kg, po measured for 0.25 to 24 hrs by LC-MS/MS analysis. Format: ADME, organism-based. Further details: dose 10 mg/kg, time upper 24 hrs, time lower 0.25 hrs, route po. Particulars: in vivo.
Series [5] is described as follows: Half life in Sprague-Dawley rat at 3 mg/kg, iv measured for 0.25 to 24 hrs by LC-MS/MS analysis. Type of series: ADME, organism-based. The settings on record: in vivo, time 0.25-24 hrs.
Series [6] in a line: AUC (0 to infinity) in Sprague-Dawley rat at 3 mg/kg, iv measured for 0.25 to 24 hrs by LC-MS/MS analysis. Format: ADME, organism-based. More on the design: time 0.25-24 hrs, dose 3 mg/kg, route iv. Particulars: in vivo.
The nature of series [7]: Metabolic stability in mouse liver microsomes assessed as half life measured up to 60 mins in presence of NADPH by LC-MS/MS analysis. Type of series: ADME, Microsome. In general terms: Liver microsomes are vesicles of endoplasmic reticulum, rich in cytochrome P450 enzymes.
Series [8] addresses T1, Histone-lysine N-methyltransferase NSD2 (Homo sapiens, UniProt O96028).
T1 sequence (O96028 whole entry): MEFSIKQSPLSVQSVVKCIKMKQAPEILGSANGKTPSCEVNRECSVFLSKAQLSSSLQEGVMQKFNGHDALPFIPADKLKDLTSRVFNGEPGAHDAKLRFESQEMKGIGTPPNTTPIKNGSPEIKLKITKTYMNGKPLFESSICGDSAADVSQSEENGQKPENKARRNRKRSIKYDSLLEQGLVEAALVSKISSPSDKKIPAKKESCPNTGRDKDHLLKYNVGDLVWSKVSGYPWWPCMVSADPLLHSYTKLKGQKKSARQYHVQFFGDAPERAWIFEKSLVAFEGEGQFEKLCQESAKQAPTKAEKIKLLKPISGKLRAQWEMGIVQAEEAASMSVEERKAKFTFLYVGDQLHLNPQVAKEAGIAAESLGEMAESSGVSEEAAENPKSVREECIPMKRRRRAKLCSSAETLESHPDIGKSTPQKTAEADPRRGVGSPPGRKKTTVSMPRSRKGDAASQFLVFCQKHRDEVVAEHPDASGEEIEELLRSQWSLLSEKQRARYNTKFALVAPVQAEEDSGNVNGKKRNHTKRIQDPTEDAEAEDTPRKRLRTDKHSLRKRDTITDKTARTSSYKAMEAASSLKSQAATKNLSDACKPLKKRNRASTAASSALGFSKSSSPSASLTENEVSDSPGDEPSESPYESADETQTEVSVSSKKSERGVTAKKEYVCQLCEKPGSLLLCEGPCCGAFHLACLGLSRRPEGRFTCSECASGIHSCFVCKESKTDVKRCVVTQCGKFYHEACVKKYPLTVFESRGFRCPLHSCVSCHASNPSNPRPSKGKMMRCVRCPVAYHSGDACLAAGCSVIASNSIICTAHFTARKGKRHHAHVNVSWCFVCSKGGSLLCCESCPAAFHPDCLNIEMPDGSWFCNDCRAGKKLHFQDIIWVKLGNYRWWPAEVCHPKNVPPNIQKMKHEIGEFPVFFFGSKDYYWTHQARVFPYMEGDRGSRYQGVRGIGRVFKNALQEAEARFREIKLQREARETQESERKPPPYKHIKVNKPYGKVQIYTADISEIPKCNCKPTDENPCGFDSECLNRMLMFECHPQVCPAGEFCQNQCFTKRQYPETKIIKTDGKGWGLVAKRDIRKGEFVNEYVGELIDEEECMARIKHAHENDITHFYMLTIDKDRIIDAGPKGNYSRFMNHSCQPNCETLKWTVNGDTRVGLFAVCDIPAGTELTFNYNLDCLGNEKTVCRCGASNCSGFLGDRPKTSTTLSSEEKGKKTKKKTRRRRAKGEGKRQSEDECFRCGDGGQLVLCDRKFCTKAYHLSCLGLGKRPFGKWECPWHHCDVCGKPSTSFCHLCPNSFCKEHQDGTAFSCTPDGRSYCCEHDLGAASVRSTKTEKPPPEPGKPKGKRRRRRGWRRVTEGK
Briefly: Inhibition of NSD2 (unknown origin) using histone H4 (1 to 21 residues) peptide/SAM as substrate incubated for 210 mins in presence of SAM by AlphaLISA assay.

A short description of series [9]: Metabolic stability in mouse liver microsomes assessed as clearance measured up to 60 mins in presence of NADPH by LC-MS/MS analysis. Type of series: ADME, Microsome. The settings on record: 1 h.
In series [10] the target is T2, Histone-arginine methyltransferase CARM1 (Homo sapiens, UniProt Q86X55).
T2 sequence (Q86X55 whole entry): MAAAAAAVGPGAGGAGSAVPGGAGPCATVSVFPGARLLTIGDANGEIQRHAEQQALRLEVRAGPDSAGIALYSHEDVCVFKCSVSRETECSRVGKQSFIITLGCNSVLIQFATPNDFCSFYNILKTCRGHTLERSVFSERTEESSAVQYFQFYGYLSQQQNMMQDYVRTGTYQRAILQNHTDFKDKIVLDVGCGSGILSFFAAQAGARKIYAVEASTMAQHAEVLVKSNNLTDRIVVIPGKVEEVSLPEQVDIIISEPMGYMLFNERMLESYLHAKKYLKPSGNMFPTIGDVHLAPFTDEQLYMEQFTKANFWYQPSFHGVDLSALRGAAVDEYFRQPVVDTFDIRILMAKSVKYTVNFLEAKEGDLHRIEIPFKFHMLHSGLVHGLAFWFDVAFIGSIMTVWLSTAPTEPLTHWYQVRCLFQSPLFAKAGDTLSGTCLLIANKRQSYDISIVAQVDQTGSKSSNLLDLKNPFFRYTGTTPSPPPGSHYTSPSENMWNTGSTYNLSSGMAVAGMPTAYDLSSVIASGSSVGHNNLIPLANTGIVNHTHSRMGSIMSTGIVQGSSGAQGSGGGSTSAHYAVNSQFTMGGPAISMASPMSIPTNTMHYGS
Briefly: Inhibition of PRMT4 (unknown origin) using histone H4 (1 to 21 residues) peptide/SAM as substrate incubated for 210 mins in presence of SAM by AlphaLISA assay. (Bead proximity is the source of the signal in Alpha formats.)

Series [11] in a line: Toxicity in BALB/c mouse xenografted with human A375 cells assessed as change in body weight at 75 mg/kg, po qd for 19 days and measured every 3 days. Type of series: organism-based, A-375. The settings on record: in vivo, 456 h, time 19 day.
Series [12] can be described thus: Plasma protein binding in mouse by LC-MS/MS analysis. Format: ADME, cell-free. The settings on record: read-out: PPB (converted).
Series [13] deals with Protein arginine N-methyltransferase 5 (Homo sapiens, UniProt O14744). Briefly: Displacement of [3H]-SAM from PRMT5 (unknown origin) using peptide substrate preincubated for 15 mins followed by substrate addition for 60 mins by radioactive biochemical assay.
Series [14] can be described thus: Clearance in Sprague-Dawley rat at 3 mg/kg, iv measured for 0.25 to 24 hrs by LC-MS/MS analysis. Type of series: ADME, organism-based. The settings on record: in vivo, time 0.25-24 hrs.

Chain of Protein arginine N-methyltransferase 5 (O14744 whole entry): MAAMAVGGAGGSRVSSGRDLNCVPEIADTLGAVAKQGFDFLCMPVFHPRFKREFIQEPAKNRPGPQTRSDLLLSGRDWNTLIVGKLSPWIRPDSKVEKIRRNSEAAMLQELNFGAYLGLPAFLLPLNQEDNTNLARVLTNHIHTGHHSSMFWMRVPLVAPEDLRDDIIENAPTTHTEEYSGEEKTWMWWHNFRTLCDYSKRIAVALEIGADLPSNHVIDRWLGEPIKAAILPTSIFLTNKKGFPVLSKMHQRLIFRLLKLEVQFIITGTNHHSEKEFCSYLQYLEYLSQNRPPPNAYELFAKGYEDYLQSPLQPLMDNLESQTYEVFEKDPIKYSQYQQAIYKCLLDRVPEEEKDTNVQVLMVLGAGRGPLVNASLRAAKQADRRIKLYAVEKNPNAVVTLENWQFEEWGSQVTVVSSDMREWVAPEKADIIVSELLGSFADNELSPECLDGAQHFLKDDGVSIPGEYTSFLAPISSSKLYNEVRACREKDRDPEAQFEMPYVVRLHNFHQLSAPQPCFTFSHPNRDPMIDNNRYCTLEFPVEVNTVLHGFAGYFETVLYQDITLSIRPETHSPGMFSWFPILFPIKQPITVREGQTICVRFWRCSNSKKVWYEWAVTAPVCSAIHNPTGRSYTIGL
Chain of Histone-lysine N-methyltransferase 2A (Q03164 1-2718 limits assumed): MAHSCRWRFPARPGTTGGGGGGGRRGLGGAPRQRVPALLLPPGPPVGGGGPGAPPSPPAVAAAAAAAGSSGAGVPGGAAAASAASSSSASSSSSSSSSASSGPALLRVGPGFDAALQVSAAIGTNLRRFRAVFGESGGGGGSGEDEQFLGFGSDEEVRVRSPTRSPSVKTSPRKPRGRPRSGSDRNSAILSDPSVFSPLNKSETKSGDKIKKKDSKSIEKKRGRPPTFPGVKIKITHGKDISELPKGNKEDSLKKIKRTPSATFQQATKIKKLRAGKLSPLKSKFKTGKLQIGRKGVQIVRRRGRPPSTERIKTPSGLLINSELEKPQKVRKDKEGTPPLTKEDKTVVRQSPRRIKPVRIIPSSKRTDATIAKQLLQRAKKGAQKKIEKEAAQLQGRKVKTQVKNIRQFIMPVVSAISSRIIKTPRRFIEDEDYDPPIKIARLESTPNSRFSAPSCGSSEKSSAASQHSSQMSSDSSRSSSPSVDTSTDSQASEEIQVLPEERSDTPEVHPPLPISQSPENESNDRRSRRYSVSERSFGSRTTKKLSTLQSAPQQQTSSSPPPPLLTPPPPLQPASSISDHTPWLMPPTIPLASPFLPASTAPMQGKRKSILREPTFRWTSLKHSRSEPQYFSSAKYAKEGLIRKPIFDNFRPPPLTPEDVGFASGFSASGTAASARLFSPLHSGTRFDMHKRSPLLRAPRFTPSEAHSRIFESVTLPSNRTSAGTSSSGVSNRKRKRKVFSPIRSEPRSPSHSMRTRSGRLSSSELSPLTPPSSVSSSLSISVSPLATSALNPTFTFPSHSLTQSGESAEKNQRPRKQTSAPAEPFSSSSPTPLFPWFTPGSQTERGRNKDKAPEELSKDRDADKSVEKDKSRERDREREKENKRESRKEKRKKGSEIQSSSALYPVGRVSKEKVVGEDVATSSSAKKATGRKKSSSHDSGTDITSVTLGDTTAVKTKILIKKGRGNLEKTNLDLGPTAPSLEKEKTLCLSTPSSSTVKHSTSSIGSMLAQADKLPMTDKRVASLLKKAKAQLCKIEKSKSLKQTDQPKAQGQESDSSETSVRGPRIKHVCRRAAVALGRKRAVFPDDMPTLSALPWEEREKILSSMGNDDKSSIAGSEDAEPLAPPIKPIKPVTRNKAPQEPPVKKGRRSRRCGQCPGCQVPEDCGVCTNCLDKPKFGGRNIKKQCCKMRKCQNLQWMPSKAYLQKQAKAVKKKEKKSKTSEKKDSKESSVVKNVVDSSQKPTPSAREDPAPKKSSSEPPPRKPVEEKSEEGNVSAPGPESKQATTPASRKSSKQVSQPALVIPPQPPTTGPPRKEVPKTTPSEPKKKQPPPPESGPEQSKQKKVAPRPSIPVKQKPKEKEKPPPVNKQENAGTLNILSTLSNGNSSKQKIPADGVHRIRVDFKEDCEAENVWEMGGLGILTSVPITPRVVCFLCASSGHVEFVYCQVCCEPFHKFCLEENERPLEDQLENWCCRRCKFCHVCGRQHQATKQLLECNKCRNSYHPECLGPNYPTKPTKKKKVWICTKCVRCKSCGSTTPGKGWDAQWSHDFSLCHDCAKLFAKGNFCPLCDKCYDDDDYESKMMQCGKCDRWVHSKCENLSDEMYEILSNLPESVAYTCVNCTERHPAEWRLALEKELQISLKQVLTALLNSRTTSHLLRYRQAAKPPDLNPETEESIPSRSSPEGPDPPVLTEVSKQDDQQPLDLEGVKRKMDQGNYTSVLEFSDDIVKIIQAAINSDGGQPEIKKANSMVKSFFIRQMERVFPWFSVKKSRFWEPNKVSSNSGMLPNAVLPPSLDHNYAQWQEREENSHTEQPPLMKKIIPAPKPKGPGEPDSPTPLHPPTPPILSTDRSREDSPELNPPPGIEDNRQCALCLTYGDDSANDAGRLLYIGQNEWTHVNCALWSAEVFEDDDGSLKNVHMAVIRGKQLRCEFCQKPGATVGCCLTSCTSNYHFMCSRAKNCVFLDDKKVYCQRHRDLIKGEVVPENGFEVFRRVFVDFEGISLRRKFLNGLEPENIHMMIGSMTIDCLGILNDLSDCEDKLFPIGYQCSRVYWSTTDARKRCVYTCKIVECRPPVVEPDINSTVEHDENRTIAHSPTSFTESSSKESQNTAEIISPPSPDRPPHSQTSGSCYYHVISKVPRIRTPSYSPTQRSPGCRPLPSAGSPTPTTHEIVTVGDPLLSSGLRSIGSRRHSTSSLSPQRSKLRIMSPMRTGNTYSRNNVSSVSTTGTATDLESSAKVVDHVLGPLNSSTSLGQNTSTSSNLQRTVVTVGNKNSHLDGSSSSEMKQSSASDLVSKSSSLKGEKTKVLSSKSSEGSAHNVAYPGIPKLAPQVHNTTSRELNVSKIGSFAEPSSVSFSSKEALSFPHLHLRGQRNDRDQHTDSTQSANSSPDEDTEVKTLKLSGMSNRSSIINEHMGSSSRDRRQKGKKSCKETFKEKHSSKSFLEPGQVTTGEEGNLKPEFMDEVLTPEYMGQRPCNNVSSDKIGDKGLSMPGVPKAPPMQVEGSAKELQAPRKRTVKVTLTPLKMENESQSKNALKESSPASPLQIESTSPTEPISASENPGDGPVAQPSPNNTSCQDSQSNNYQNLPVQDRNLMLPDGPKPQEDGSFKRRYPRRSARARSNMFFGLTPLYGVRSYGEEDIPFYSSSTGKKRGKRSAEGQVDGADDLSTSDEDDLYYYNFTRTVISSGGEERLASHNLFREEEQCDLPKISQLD
Chain of Histone-lysine N-methyltransferase 2A (Q03164 2719-3969 limits assumed): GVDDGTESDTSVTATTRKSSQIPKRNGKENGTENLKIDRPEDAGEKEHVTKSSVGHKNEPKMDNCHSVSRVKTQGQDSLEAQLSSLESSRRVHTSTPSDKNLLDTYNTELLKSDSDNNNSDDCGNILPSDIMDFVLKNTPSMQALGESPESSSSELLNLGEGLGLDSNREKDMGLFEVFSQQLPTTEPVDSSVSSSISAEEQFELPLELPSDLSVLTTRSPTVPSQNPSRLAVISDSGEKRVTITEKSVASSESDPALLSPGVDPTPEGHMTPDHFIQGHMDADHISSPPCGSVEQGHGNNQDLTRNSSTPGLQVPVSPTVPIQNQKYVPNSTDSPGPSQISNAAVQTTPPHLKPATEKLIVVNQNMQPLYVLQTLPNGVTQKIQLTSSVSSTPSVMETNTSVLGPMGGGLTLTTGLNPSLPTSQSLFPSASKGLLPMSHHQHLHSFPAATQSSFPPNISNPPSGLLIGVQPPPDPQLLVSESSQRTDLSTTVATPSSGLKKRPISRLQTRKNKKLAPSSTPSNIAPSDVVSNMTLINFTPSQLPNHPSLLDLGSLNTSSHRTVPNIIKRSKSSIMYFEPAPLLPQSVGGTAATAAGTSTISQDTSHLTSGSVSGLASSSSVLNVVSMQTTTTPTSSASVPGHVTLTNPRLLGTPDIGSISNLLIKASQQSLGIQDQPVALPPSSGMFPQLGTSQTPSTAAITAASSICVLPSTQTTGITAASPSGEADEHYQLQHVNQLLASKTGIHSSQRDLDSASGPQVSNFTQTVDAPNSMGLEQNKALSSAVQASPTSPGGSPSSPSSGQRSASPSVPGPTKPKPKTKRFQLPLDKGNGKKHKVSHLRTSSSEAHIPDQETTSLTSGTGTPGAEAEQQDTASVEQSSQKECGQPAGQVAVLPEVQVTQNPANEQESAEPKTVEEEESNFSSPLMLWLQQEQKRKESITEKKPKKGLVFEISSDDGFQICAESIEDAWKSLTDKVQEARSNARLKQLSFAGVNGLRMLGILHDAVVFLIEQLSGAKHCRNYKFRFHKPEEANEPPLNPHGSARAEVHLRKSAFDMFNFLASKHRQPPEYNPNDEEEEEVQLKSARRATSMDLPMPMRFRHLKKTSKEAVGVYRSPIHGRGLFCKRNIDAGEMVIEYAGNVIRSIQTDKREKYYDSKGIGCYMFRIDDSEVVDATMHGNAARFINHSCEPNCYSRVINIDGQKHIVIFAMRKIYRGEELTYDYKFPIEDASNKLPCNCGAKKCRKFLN

On to `C[C@H](Oc1ccc(-c2cc3c(C4=CCNCC4)ncnc3[nH]2)cc1)c1ccccc1`, for which the IC50 was over 20 µM in [1], over 20 µM in series [8], over 20 µM in [10] and 0.0239 µM in series [13]. Moreover, the Activity with A-375 [2] was 14.14%; in [11], “Non-Toxic”. Besides, in the series with A-375 [3], the inhibition in vivo at 75 mg/kg worked out at 73%. The AUC turned out to be 65.3 h/ng/mL in series [4] and 173 h/ng/mL in series [6]. For the same molecule, the half-life is 2.58 h in series [5] and 1.14 h in series [7]. In addition, the CLH in series [9] was determined as 30.7 mL/min/g. For the same molecule, the fraction unbound in [12] is 0.003. This molecule also displayed a clearance in series [14] of 310 mL/min/kg.
